Assay results reported in US20090048301A1 (IMCLONE SYSTEMS INCORPORATED, priority 2003, published 2009).

Tested on: bovine tubulin
Assay: In vitro tubulin polymerization assay (turbidity at 340 nm)
Type: biochemical
Settings: 10 μM compound, 30 minute data point, vs 1% DMSO control
Protocol: Briefly, tubulin polymerization is a kinetic process that is temperature-dependent and requires GTP and was performed as follows. Soluble tubulin dimers polymerize into microtubules upon warming, and polymerization in vitro correlates with an increase in turbidity (measured at 340 nm). Lyophilized bovine tubulin (HTS Tubulin—97% tubulin, <3% MAPs—Cytoskeleton Inc.) was ressuspended in G-PEM buffer (80 mM PIPES pH 7, 1 mM EGTA, 1 mM MgCl2, 1 mM GTP, 5% glycerol) to a final concentration of 3 mg/ml and kept at 4° C. Compounds in 100× stock solutions in DMSO were dotted to pre-warmed 96-well plates (Corning Costar 3696), the plates were transferred to a 37° C. plate reader (SPECTRAmax Plus, Molecular Devices), cold tubulin was added to the wells, and the plates were shaken for mixing. The absorbance at 340 nm was determined at one minute intervals for 30 minutes. Kinetic curves with 30 points each were collected for each compound, and the dynamic range was between 0 and 0.4 OD units. The percentage inhibition values were calculated using the 30 minute data point and based on control samples (treated with 1% DMSO only). The assay is a modified version of the HTS kit sold by Cytoskeleton (1830 S. Acoma St., Denver, Colo.), adapted to maximize throughput and reduce time, without reduction in dynamic range or sensitivity, while retaining the ability to detect compounds that inhibit or enhance tubulin polymerization.
Tubulin polymerization is a kinetic process that is temperature-dependent and requires GTP. Soluble tubulin dimers polymerize into microtubules upon warming, and polymerization in vitro correlates with an increase in turbidity (measured at 340 nm). Liophilized bovine tubulin (HTS Tubulin—97% tubulin, <3% MAPs—Cytoskeleton Inc.) was ressuspended in G-PEM buffer (80 mM PIPES pH 7, 1 mM EGTA, 1 mM MgCl2, 1 mM GTP, 5% glycerol) to a final concentration of 3 mg/ml and kept at 4° C. Compounds in 100× stock solutions in DMSO were dotted to pre-warmed 96-well plates (Corning Costar 3696), the plates were immediately transferred to a 37° C. plate reader (SPECTRAmax Plus, Molecular Devices), cold tubulin was added to the wells, plates were shaken for mixing, and absorbance at 340 nm was read every minute for 30 minutes. Kinetic curves with 30 points each were collected for each compound, and the dynamic range was between 0 and 0.4 OD units. Percentage inhibition values were calculated using the 30 minute data point, based on control samples (treated with 1% DMSO only). This assay is a modified version of the HTS kit sold by Cytoskeleton, adapted to maximize throughput and reduce time, without reduction in dynamic range or sensitivity, while retaining the ability to detect compounds that inhibit or enhance tubulin polymerization.

COc1ccc(Nc2nnc(-c3cccnc3Nc3ccc4cn[nH]c4c3)[nH]2)cc1 [Compound 19, (1H-Indazol-6-yl)-{3-[5-(4-methoxy-phenylamino)-4H-[1,2,4]triazol-3-yl]-pyridin-2-yl}-amine]
Tubulin Assay: percent inhibition at 10 μM based on 30 minute data: 20%

COc1ccc(Nc2nnc(-c3cccnc3Nc3ccc4cn[nH]c4c3)[nH]2)c(OC)c1 [Compound 22, {3-[5-(2,4-Dimethoxy-phenylamino)-4H-[1,2,4]triazol-3-yl]-pyridin-2-yl}-(1H-indazol-6-yl)-amine]
Tubulin Assay: percent inhibition at 10 μM based on 30 minute data: 24%

COc1cccc(Nc2nnc(-c3cccnc3NCc3cc(OC)cc(OC)c3)[nH]2)c1 [Compound 23, (3,5-Dimethoxy-benzyl)-{3-[5-(3-methoxy-phenylamino)-4H-[1,2,4]triazol-3-yl]-pyridin-2-yl}-amine]
Tubulin Assay: percent inhibition at 10 μM based on 30 minute data: 22%

COc1cc(CNc2ncccc2-c2nnc(Nc3ccc(OC)cc3OC)[nH]2)cc(OC)c1 [Compound 24, (3,5-Dimethoxy-benzyl)-{3-[5-(2,4-dimethoxy-phenylamino)-4H-[1,2,4]triazol-3-yl]-pyridin-2-yl}-amine]
Tubulin Assay: percent inhibition at 10 μM based on 30 minute data: 20%

COc1ccc(Nc2nnc(-c3cccnc3NCc3cccnc3)[nH]2)cc1 [Compound 26, {3-[5-(4-Methoxy-phenylamino)-4H-[1,2,4]triazol-3-yl]-pyridin-2-yl}-pyridin-3-ylmethyl-amine]
Tubulin Assay: percent inhibition at 10 μM based on 30 minute data: 20%

COc1ccc(Nc2nnc(-c3cccnc3NCc3cccnc3)[nH]2)c(OC)c1 [Compound 27, {3-[5-(2,4-Dimethoxy-phenylamino)-4H-[1,2,4]triazol-3-yl]-pyridin-2-yl}-pyridin-3-ylmethyl-amine]
Tubulin Assay: percent inhibition at 10 μM based on 30 minute data: 20%

COc1ccc(OC)c(Nc2nnc(-c3cccnc3NCc3cccnc3)[nH]2)c1 [Compound 28, {3-[5-(2,5-Dimethoxy-phenylamino)-4H-[1,2,4]triazol-3-yl]-pyridin-2-yl}-pyridin-3-ylmethyl-amine]
Tubulin Assay: percent inhibition at 10 μM based on 30 minute data: 22%

COc1cccc(Nc2nnc(-c3cccnc3NCCCn3ccnc3)[nH]2)c1 [Compound 29, (3-Imidazol-1-yl-propyl)-{3-[5-(3-methoxy-phenylamino)-4H-[1,2,4]triazol-3-yl]-pyridin-2-yl}-amine]
Tubulin Assay: percent inhibition at 10 μM based on 30 minute data: 28%

c1cnc(NCc2ccc3c(c2)OCCO3)c(-c2nnc(Nc3ccc4c(c3)OCO4)[nH]2)c1 [Compound 34, {3-[5-(Benzo[1,3]dioxol-5-ylamino)-4H-[1,2,4]triazol-3-yl]-pyridin-2-yl}-(2,3-dihydro-benzo[1,4]dioxin-6-ylmethyl)-amine]
Tubulin Assay: percent inhibition at 10 μM based on 30 minute data: 69%

COc1cccc(Nc2nnc(-c3cccnc3NCc3ccc4c(c3)OCCO4)[nH]2)c1 [Compound 35, (2,3-Dihydro-benzo[1,4]dioxin-6-ylmethyl)-{3-[5-(3-methoxy-phenylamino)-4H-[1,2,4]triazol-3-yl]-pyridin-2-yl}-amine]
Tubulin Assay: percent inhibition at 10 μM based on 30 minute data: 66%

c1cnc(NCc2ccc3c(c2)CCO3)c(-c2nnc(Nc3ccc4c(c3)OCO4)[nH]2)c1 [Compound 36, {3-[5-(Benzo[1,3]dioxol-5-ylamino)-4H-[1,2,4]triazol-3-yl]-pyridin-2-yl}-(2,3-dihydro-benzofuran-5-ylmethyl)-amine]
Tubulin Assay: percent inhibition at 10 μM based on 30 minute data: 67%

COc1cccc(Nc2nnc(-c3cccnc3NCc3ccc4c(c3)CCO4)[nH]2)c1 [Compound 37, (2,3-Dihydro-benzofuran-5-ylmethyl)-{3-[5-(3-methoxy-phenylamino)-4H-[1,2,4]triazol-3-yl]-pyridin-2-yl}-amine]
Tubulin Assay: percent inhibition at 10 μM based on 30 minute data: 91%

c1cncc(CCNc2ncccc2-c2nnc(Nc3ccc4c(c3)OCCO4)[nH]2)c1 [Compound 41, {3-[5-(2,3-Dihydro-benzo[1,4]dioxin-6-ylamino)-4H-[1,2,4]triazol-3-yl]-pyridin-2-yl}-(2-pyridin-3-yl-ethyl)-amine]
Tubulin Assay: percent inhibition at 10 μM based on 30 minute data: 23%

COc1cccc(Nc2nnc(-c3cccnc3NCC3COCCO3)[nH]2)c1 (centres unmarked) [Compound 46, [1,4]Dioxan-2-ylmethyl-{3-[5-(3-methoxy-phenylamino)-4H-[1,2,4]triazol-3-yl]-pyridin-2-yl}-amine]
Tubulin Assay: percent inhibition at 10 μM based on 30 minute data: 25%

c1cnc(NCC2COCCO2)c(-c2nnc(Nc3ccc4c(c3)OCO4)[nH]2)c1 (centres unmarked) [Compound 47, {3-[5-(Benzo[1,3]dioxol-5-ylamino)-4H-[1,2,4]triazol-3-yl]-pyridin-2-yl}-[1,4]dioxan-2-ylmethyl-amine]
Tubulin Assay: percent inhibition at 10 μM based on 30 minute data: 24%

O=C1CCCN1CCCNc1ncccc1-c1nnc(Nc2ccc3c(c2)OCCO3)[nH]1 [Compound 48, 1-(3-{3-[5-(2,3-Dihydro-benzo[1,4]dioxin-6-ylamino)-4H-[1,2,4]thiazol-3-yl]-pyridin-2-ylamino}-propyl)-pyrrolidin-2-one]
Tubulin Assay: percent inhibition at 10 μM based on 30 minute data: 21%

COc1cccc(CNc2ncccc2-c2nnc(Nc3ccc4c(c3)OCCO4)[nH]2)c1 [Compound 52, {3-[5-(2,3-Dihydro-benzo[1,4]dioxin-6-ylamino)-4H-[1,2,4]triazol-3-yl]-pyridin-2-yl}-(3-methoxy-benzyl)-amine]
Tubulin Assay: percent inhibition at 10 μM based on 30 minute data: 35%

c1cnc(NCC2COCCO2)c(-c2nnc(Nc3ccc4c(c3)OCCO4)[nH]2)c1 (centres unmarked) [Compound 55, {3-[5-(2,3-Dihydro-benzo[1,4]dioxin-6-ylamino)-4H-[1,2,4]triazol-3-yl]-pyridin-2-yl}-[1,4]dioxan-2-ylmethyl-amine]
Tubulin Assay: percent inhibition at 10 μM based on 30 minute data: 23%

COc1ccc(CNc2nnc(-c3cccnc3NCCCN3CCCC3=O)[nH]2)cc1 [Compound 57, 1-(3-{3-[5-(4-Methoxy-benzylamino)-4H-[1,2,4]triazol-3-yl]-pyridin-2-ylamino}-propyl)-pyrrolidin-2-one]
Tubulin Assay: percent inhibition at 10 μM based on 30 minute data: 22%

COc1cc(Nc2ncccc2-c2nnc(Nc3cccc(NCc4ccc5c(c4)OCO5)c3)[nH]2)cc(OC)c1 [Compound 60, N-Benzo[1,3]dioxol-5-ylmethyl-N′-{5-[2-(3,5-dimethoxy-phenylamino)-pyridin-3-yl]-4H-[1,2,4]triazol-3-yl}-benzene-1,3-diamine]
Tubulin Assay: percent inhibition at 10 μM based on 30 minute data: 99%

COc1cc(Nc2ncccc2-c2nnc(Nc3cccc(N)c3)[nH]2)cc(OC)c1 [Compound 60b, N-{5-[2-(3,5-dimethoxy-phenylamino)-pyridin-3-yl]-4H-[1,2,4]triazol-3-yl}-benzene-1,3-diamine]
Tubulin Assay: percent inhibition at 10 μM based on 30 minute data: 39%

COc1cc(Nc2ncccc2-c2nnc(Nc3cccc(NCC4CCOCC4)c3)[nH]2)cc(OC)c1 [Compound 61, N-{5-[2-(3,5-Dimethoxy-phenylamino)-pyridin-3-yl]-4H-[1,2,4]triazol-3-yl}-N′-(tetrahydro-pyran-4-ylmethyl)-benzene-1,3-diamine]
Tubulin Assay: percent inhibition at 10 μM based on 30 minute data: 24%

COc1cc(Nc2ncccc2-c2nnc(Nc3cccc(NCc4ccco4)c3)[nH]2)cc(OC)c1 [Compound 62, N-{5-[2-(3,5-Dimethoxy-phenylamino)-pyridin-3-yl]-4H-[1,2,4]triazol-3-yl}-N′-furan-2-ylmethyl-benzene-1,3-diamine]
Tubulin Assay: percent inhibition at 10 μM based on 30 minute data: 73%

COc1cc(Nc2ncccc2-c2nnc(Nc3cccc(NS(=O)(=O)c4ccc5c(c4)CCO5)c3)[nH]2)cc(OC)c1 [Compound 63, 2,3-Dihydro-benzofuran-5-sulfonic acid (3-{5-[2-(3,5-dimethoxy-phenylamino)-pyridin-3-yl]-4H-[1,2,4]triazol-3-ylamino}-phenyl)-amide]
Tubulin Assay: percent inhibition at 10 μM based on 30 minute data: 24%

COc1cc(Nc2ncccc2-c2nnc(Nc3cccc(NS(=O)(=O)c4ccc5c(c4)OCCO5)c3)[nH]2)cc(OC)c1 [Compound 64, 2,3-Dihydro-benzo[1,4]dioxine-6-sulfonic acid (3-{5-[2-(3,5-dimethoxy-phenylamino)-pyridin-3-yl]-4H-[1,2,4]triazol-3-ylamino}-phenyl)-amide]
Tubulin Assay: percent inhibition at 10 μM based on 30 minute data: 29%

COc1cc(Nc2ncccc2-c2nc(Nc3ccc4c(c3)OCO4)n(C)n2)cc(OC)c1 [Compound 65, {3-[5-(Benzo[1,3]dioxol-5-ylamino)-1-methyl-1H-[1,2,4]triazol-3-yl]-pyridin-2-yl}-(3,5-dimethoxy-phenyl)-amine]
Tubulin Assay: percent inhibition at 10 μM based on 30 minute data: 77%
